In patent EP4745135A1 (Gluetacs Therapeutics (Shanghai) Co., Ltd., priority 2023, dated 2025):
One block for each molecule: values may come before it.

Assays:
CK1α = molecular target: T1, CK1α (Homo sapiens, UniProt P48729+Q96SW2); assay: Western blot, degradation of substrate protein in hPBMCs; assay type: cell-based
T1 construct: effects of the compounds of the present disclosure on the expression of target proteins in cells; endogenous in cells; host or cells: human PBMCs (Milecell Biotechnologies)

IKZF1 = molecular target: T2, IKZF1 (Homo sapiens, UniProt Q13422+Q96SW2); assay: as above; assay type: cell-based
T2 construct: effects of the compounds of the present disclosure on the expression of target proteins in cells; endogenous in cells; host or cells: human PBMCs (Milecell Biotechnologies)

IKZF2 = molecular target: T3, IKZF2 (Homo sapiens, UniProt Q96SW2+Q9UKS7); assay: as above; assay type: cell-based
T3 construct: effects of the compounds of the present disclosure on the expression of target proteins in cells; endogenous in cells; host or cells: human PBMCs (Milecell Biotechnologies)

IKZF3 = molecular target: T4, IKZF3 (Homo sapiens, UniProt Q96SW2+Q9UKT9); assay: as above; assay type: cell-based
T4 construct: effects of the compounds of the present disclosure on the expression of target proteins in cells; endogenous in cells; host or cells: human PBMCs (Milecell Biotechnologies)

WEE1 = molecular target: T5, WEE1 (Homo sapiens, UniProt P30291+Q96SW2); assay: as above; assay type: cell-based
T5 construct: effects of the compounds of the present disclosure on the expression of target proteins in cells; endogenous in cells; host or cells: human PBMCs (Milecell Biotechnologies)

GSPT1 = assay: as above; assay type: cell-based, Human
[1] = molecular target: T6, human Cereblon WT GST-tagged protein (Homo sapiens, UniProt Q96SW2); assay: CRBN-binding affinity, HTRF (CEREBLON BINDING kit); details: for inhibition at 0.5 µM: read-out: Inhibition Rate at 0.5 µM (%); for inhibition at 2 µM: read-out: Inhibition Rate at 2 µM (%)
T6 construct: purchased CISBIO 64BDCRBNPEH

[2] = test system: Human T lymphocytic leukemia cell line: Jurkat; assay: Tumor cell proliferation inhibition (CellTiter-Meiluncell luminescent cell viability assay); details: 96 h, read-out: Inhibitory activity (IC50, nM) on tumor cell proliferation, Jurkat
Procedure: (§1) The tumor cells used herein were cultured in a cell culture medium listed in table 2 at 37°C in an incubator with 5% CO2. Prior to experimentation, all cell lines used were correctly identified by STR profiling, and tested negative for mycoplasma contamination using a mycoplasma detection kit through routine screenings.
(§2) The IC50 values of the compounds of the present disclosure (including the compounds in Table 1 and Examples) were determined using the CellTiter-Meiluncell Luminescent Cell Viability Assay Kit from Dalian Meilun Biotech Co., Ltd. The detailed procedure is as follows: Tumor cells were seeded in 96-well cell culture plates at the densities specified in Table 3. On the following day, the test compounds of the present disclosure were subjected to serial dilution. The dilution can be performed according to one of the following two methods: • (1) The first dilution method: The test compounds of the present disclosure (including the compounds in Table 1 and Examples) were subjected to 5-fold serial dilutions starting from a highest concentration of 2000 µM, resulting in a total of 9 concentrations from high to low (2000, 400, 80, 16, 3.2, 0.64, 0.128, 0.0256, 0.00512 µM). Subsequently, 0.5 µL of the test compound dilution was transferred into the 96-well plate containing the cells, with each well containing 100 µL of cell culture medium. […] Into the 96-well plate, the diluted test compounds and corresponding detection reagents were added, resulting in final test compound concentrations of 500 nM and 10 nM, respectively. The experimental procedure is described below using the diluted 2 µM test compound as an example.
(§3) 0.5 µL of the aforementioned diluted compound of the present disclosure (including the compounds in Table 1 and Examples) was added to the seeded cells in 100 µL of medium, yielding a final test compound concentration of 10 nM. After the cells were treated with the compounds of the present disclosure for a specified period, the cell viability assay reagent was added to the culture medium according to the kit's instructions to determine cell viability. […] All controls were treated using the same procedure as the compounds of the present disclosure. The growth inhibition curves for the compounds of the present disclosure were plotted using Prism GraphPad software, and the IC50 values were calculated therefrom.

[3] = test system: Human myeloid monocytic leukemia cell (MV-4-11); assay: as above; details: MV4-11, 96 h; for inhibition at 0.01 µM: read-out: Inhibition Rate at 10 nM (%); for inhibition at 0.5 µM: read-out: Inhibition Rate at 500 nM (%)
[4] = test system: Human acute myeloid leukemia cell line: Kasumi-1; assay: as above; details: Kasumi 1, 96 h
[5] = test system: Human multiple myeloma cell (MM.1S); assay: as above; details: Homo sapiens, MM1.S, 96 h; for inhibition at 0.01 µM: read-out: Inhibition Rate at 10 nM (%); for inhibition at 0.5 µM: read-out: Inhibition Rate at 500 nM (%)
[6] = test system: Human multiple myeloma peripheral blood B lymphocyte cell (RPMI-8226); assay: as above; details: RPMI-8226, 96 h; for inhibition at 0.01 µM: read-out: Inhibition Rate at 10 nM (%); for inhibition at 0.5 µM: read-out: Inhibition Rate at 500 nM (%)
Procedure: as §1, §2, §3

[7] = test system: Human acute T lymphocytic leukemia cell (Molt4); assay: as above; details: MOLT-4, 96 h; for inhibition at 0.01 µM: read-out: Inhibition Rate at 10 nM (%); for inhibition at 0.5 µM: read-out: Inhibition Rate at 500 nM (%)
[8] = test system: Human breast cancer cell (MCF-7); assay: as above; details: MCF7, 96 h; for inhibition at 0.01 µM: read-out: Inhibition Rate at 10 nM (%); for inhibition at 0.5 µM: read-out: Inhibition Rate at 500 nM (%)
[9] = Western blot, 24 hours of compound treatment, compounds tested at 50 nM and 500 nM (concentration for the table not stated)
[10] = 24 hours treatment, compounds at 50 nM and 500 nM (concentration behind the class not stated)

T2 sequence (Q13422 whole entry): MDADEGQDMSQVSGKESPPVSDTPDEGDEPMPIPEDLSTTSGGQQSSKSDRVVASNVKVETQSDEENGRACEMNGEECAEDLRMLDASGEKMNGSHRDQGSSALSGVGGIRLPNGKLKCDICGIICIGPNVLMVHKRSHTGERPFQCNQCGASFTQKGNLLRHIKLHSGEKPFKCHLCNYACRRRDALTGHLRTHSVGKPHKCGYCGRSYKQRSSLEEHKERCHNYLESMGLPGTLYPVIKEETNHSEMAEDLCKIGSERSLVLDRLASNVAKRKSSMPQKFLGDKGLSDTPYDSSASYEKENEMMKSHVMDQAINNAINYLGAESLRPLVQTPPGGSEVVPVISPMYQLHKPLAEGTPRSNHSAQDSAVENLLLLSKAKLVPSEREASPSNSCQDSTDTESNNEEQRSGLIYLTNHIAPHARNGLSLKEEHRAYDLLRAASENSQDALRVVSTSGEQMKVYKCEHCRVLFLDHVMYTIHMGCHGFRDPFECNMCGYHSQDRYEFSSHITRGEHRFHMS
T2 sequence (Q96SW2 whole entry): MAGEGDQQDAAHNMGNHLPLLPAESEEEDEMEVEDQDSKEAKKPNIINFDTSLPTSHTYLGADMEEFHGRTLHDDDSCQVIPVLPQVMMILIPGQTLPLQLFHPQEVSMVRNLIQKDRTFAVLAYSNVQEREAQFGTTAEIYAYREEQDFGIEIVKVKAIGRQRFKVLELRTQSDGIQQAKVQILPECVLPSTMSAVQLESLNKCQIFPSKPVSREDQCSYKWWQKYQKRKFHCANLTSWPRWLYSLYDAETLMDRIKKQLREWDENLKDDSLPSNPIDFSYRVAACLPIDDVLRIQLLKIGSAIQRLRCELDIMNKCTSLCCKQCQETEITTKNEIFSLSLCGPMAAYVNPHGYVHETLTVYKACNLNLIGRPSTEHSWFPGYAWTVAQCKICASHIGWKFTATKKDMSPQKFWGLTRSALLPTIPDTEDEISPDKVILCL
T2 sequence (Q16531 whole entry partner): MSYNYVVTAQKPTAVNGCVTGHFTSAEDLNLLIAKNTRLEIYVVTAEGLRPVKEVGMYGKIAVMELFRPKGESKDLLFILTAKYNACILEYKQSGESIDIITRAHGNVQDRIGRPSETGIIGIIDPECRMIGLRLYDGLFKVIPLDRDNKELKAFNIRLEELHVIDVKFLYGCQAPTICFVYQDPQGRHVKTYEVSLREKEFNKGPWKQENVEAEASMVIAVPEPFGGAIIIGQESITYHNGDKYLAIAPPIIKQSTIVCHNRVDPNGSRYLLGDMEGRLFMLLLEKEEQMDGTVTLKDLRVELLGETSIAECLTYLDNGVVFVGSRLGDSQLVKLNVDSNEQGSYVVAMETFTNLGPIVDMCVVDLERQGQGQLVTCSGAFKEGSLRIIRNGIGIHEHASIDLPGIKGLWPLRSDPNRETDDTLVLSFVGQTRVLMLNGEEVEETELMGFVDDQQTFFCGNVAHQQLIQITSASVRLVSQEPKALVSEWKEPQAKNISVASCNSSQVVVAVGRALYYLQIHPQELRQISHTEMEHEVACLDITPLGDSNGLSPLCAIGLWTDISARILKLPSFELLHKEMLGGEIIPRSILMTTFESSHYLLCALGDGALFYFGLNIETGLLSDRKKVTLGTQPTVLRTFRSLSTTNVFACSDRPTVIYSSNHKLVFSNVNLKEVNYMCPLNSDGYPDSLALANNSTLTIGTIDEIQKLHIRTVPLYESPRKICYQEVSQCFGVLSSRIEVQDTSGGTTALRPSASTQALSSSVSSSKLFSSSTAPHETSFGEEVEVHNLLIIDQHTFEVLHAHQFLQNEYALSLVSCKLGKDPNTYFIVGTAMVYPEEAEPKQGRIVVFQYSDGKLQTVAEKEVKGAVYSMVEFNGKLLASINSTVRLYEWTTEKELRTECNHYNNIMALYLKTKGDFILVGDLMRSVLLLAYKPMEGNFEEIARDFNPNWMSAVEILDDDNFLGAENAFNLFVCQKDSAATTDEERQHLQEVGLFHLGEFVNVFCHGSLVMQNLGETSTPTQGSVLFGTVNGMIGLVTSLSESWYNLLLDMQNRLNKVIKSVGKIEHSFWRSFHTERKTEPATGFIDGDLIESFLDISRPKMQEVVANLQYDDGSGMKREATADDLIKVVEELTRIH
T6 sequence (Q96SW2 whole entry): as the sequence (Q96SW2 whole entry) above
T4 sequence (Q9UKT9 whole entry): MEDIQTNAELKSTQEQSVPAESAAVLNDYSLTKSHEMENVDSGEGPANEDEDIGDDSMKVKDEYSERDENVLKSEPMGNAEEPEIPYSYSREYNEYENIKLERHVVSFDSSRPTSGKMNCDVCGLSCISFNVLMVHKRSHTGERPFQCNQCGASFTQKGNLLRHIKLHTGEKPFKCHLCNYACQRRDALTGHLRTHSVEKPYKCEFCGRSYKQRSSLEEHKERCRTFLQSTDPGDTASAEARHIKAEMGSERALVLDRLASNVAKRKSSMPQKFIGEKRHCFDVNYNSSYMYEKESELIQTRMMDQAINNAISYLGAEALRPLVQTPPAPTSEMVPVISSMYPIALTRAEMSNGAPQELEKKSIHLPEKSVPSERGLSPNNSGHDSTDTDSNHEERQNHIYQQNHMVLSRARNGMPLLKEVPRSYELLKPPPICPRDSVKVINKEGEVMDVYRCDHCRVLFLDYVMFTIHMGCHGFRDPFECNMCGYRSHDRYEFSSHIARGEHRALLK
T4 sequence (Q96SW2 whole entry): as the sequence (Q96SW2 whole entry) above
T4 sequence (Q16531 whole entry partner): as the sequence (Q16531 whole entry partner) above
T5 sequence (P30291 whole entry): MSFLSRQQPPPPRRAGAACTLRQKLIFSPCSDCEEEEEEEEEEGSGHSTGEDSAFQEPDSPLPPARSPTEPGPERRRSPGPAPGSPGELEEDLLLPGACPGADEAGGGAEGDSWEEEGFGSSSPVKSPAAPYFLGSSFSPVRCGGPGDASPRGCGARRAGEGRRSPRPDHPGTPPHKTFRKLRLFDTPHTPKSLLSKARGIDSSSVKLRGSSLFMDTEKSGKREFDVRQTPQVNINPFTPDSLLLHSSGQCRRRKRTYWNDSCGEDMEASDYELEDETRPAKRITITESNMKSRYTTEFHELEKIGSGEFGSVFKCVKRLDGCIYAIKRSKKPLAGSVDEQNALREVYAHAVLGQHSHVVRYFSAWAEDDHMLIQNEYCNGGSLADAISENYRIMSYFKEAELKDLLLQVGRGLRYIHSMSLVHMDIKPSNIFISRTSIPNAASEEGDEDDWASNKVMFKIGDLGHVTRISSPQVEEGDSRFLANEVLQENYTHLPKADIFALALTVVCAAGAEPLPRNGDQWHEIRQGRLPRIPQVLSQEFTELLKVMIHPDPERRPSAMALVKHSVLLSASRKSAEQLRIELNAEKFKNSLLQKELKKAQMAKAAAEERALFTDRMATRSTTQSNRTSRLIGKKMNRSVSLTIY
T5 sequence (Q96SW2 whole entry): as the sequence (Q96SW2 whole entry) above
T5 sequence (Q16531 whole entry partner): as the sequence (Q16531 whole entry partner) above
T1 sequence (P48729 whole entry): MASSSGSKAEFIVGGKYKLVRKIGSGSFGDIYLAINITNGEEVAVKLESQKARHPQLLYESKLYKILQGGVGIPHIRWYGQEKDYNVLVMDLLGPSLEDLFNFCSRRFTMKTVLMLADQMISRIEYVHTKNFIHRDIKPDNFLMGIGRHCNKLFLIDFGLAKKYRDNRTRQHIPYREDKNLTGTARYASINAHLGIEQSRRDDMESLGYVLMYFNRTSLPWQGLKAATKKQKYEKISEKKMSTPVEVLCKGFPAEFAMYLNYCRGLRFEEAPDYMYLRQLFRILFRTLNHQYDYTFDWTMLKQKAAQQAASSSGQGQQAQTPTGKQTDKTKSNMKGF
T1 sequence (Q96SW2 whole entry): as the sequence (Q96SW2 whole entry) above
T1 sequence (Q16531 whole entry partner): as the sequence (Q16531 whole entry partner) above
T3 sequence (Q9UKS7 whole entry): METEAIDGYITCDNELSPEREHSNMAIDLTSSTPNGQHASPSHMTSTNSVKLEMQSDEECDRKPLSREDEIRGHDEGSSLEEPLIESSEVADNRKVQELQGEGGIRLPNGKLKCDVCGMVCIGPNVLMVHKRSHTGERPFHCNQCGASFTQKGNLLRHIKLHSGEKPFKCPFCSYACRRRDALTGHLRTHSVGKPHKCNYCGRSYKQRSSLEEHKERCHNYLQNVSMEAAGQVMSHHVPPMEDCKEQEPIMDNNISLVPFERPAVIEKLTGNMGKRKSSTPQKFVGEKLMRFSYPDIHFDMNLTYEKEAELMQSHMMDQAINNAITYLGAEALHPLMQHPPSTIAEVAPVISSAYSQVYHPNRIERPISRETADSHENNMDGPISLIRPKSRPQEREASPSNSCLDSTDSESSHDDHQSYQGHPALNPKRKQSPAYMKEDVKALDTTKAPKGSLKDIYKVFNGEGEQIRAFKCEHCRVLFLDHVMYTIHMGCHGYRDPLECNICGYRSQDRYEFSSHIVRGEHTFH
T3 sequence (Q96SW2 whole entry): as the sequence (Q96SW2 whole entry) above
T3 sequence (Q16531 whole entry partner): as the sequence (Q16531 whole entry partner) above

IC50 ([1]; CRBN binding, HTRF, 3 hours at room temperature, read-out: HTRF IC50): 500 to 1000 nM
IC50 [2]: 50 to 100 nM
Structure (SMILES): O=C1CCC(N2Cc3cc(CN4CCN(c5cccc(Cl)c5Cl)CC4)ccc3C2=S)C(=O)N1 (centres unmarked) [GT-04474, 3-(5-((4-(2,3-dichlorophenyl)piperazin-1-yl)methyl)-1-thioxoisoindolin-2-yl)piperidine-2,6-dione]
CK1α substrate protein remaining % (CK1α; [9]): B (80%< substrate protein remaining %≤ 100%)
IKZF 1 substrate protein remaining % (IKZF1; [9]): A (0% ≤ substrate protein remaining % ≤ 80%)
IKZF2 substrate protein remaining % (IKZF2; [9]): A (0% ≤ substrate protein remaining % ≤ 80%)
IKZF3 substrate protein remaining % (IKZF3; [9]): A (0% ≤ substrate protein remaining % ≤ 80%)
Wee1 substrate protein remaining % (WEE1; [9]): A (0% ≤ substrate protein remaining % ≤ 80%)
GSPT1 substrate protein remaining % (GSPT1; [9]): A (0% ≤ substrate protein remaining % ≤ 80%)

inhibition at 0.5 µM [1]: 40 to 53%
inhibition at 2 µM [1]: 60 to 80%
Structure (SMILES): O=C1CCC(N2Cc3c(CN4CCN(c5cccc(F)c5F)CC4)cccc3C2=S)C(=O)N1 (centres unmarked) [GT-08268, 3-(4-((4-(2,3-difluorophenyl)piperazin-1-yl)methyl)-1-thioxoisoindolin-2-yl)piperidine-2,6-dione]
CK1α substrate protein remaining % (CK1α; [9]): B (80%< substrate protein remaining %≤ 100%)
IKZF 1 substrate protein remaining % (IKZF1; [9]): B (80%< substrate protein remaining %≤ 100%)
IKZF2 substrate protein remaining % (IKZF2; [9]): B (80%< substrate protein remaining %≤ 100%)
IKZF3 substrate protein remaining % (IKZF3; [9]): B (80%< substrate protein remaining %≤ 100%)
Wee1 substrate protein remaining % (WEE1; [9]): A (0% ≤ substrate protein remaining % ≤ 80%)
GSPT1 substrate protein remaining % (GSPT1; [9]): A (0% ≤ substrate protein remaining % ≤ 80%)
inhibition at 0.01 µM [3]: 60 to 80%
inhibition at 0.5 µM [3]: 60 to 80%
inhibition at 0.01 µM ([4]; read-out: Inhibition Rate at 10 nM (%)): 50 to 60%
inhibition at 0.5 µM ([4]; read-out: Inhibition Rate at 500 nM (%)): 50 to 60%

inhibition at 0.5 µM [1]: 60 to 80%
inhibition at 2 µM [1]: 80 to 100%
Structure (SMILES): O=C1CCC(N2Cc3cc(CN4CC=C(c5n[nH]c6cc(F)ccc56)CC4)ccc3C2=S)C(=O)N1 (centres unmarked) [GT-09270, 3-(5-((4-(6-fluoro-1H-indazol-3-yl)-3,6-dihydropyridin-1(2H)-yl)methyl)-1-thioxoisoindolin-2-yl)piperidine-2,6-dione]
CK1α substrate protein remaining % (CK1α; [10]): A (0% ≤ substrate protein remaining % ≤ 80%)
IKZF 1 substrate protein remaining % (IKZF1; [10]): A (0% ≤ substrate protein remaining % ≤ 80%)
IKZF2 substrate protein remaining % (IKZF2; [10]): B (80%< substrate protein remaining %≤ 100%)
IKZF3 substrate protein remaining % (IKZF3; [10]): B (80%< substrate protein remaining %≤ 100%)
Wee1 substrate protein remaining % (WEE1; [10]): A (0% ≤ substrate protein remaining % ≤ 80%)
GSPT1 substrate protein remaining % (GSPT1; [10]): B (80%< substrate protein remaining %≤ 100%)
inhibition at 0.01 µM [5]: 50 to 60%
inhibition at 0.5 µM [5]: 80 to 100%
inhibition at 0.01 µM [6]: 20 to 30%
inhibition at 0.5 µM [6]: 70 to 80%
inhibition at 0.01 µM [7]: 70 to 80%
inhibition at 0.5 µM [7]: 80 to 100%
inhibition at 0.01 µM [3]: 80 to 100%
inhibition at 0.5 µM [3]: 80 to 100%
inhibition at 0.01 µM [8]: 10 to 20%
inhibition at 0.5 µM [8]: 70 to 80%

inhibition at 0.5 µM [1]: 40 to 53%
inhibition at 2 µM [1]: 80 to 100%
Structure (SMILES): O=C1CCC(N2Cc3cc(CN4CC=C(c5cccc6c(F)cccc56)CC4)ccc3C2=S)C(=O)N1 (centres unmarked) [GT-09276, 3-(5-((4-(5-fluoronaphthalen-1-yl)-3,6-dihydropyridin-1(2H)-yl)methyl)-1-thioxoisoindolin-2-yl)piperidine-2,6-dione]
CK1α substrate protein remaining % (CK1α; [10]): A (0% ≤ substrate protein remaining % ≤ 80%)
IKZF 1 substrate protein remaining % (IKZF1; [10]): B (80%< substrate protein remaining %≤ 100%)
IKZF2 substrate protein remaining % (IKZF2; [10]): A (0% ≤ substrate protein remaining % ≤ 80%)
IKZF3 substrate protein remaining % (IKZF3; [10]): A (0% ≤ substrate protein remaining % ≤ 80%)
Wee1 substrate protein remaining % (WEE1; [10]): A (0% ≤ substrate protein remaining % ≤ 80%)
GSPT1 substrate protein remaining % (GSPT1; [10]): A (0% ≤ substrate protein remaining % ≤ 80%)
inhibition at 0.01 µM [5]: 70 to 80%
inhibition at 0.5 µM [5]: 80 to 100%
inhibition at 0.01 µM [6]: 20 to 30%
inhibition at 0.5 µM [6]: 70 to 80%
inhibition at 0.01 µM [7]: 70 to 80%
inhibition at 0.5 µM [7]: 70 to 80%
inhibition at 0.01 µM [3]: 80 to 100%
inhibition at 0.5 µM [3]: 80 to 100%
inhibition at 0.01 µM [8]: 30 to 40%
inhibition at 0.5 µM [8]: 80 to 100%
